One test deals with T1, MC2 (Homo sapiens, UniProt Q01718).
T1 construct: host or cells: Chem-1 cells with promiscuous Gα15
Briefly: GPCR Profiler. It is filed as cell-based.

The next test has as its target T2, CCR9 (Homo sapiens, UniProt P51686).
T2 construct: host or cells: Chem-1 cells with Gα15
Briefly: GPCR Profiler. Type of test: cell-based.

The next test addresses T3, P2Y12 (Homo sapiens, UniProt Q9H244).
T3 construct: host or cells: Chem-1 cells expressing Gα15
Briefly: GPCR Profiler. Type of test: cell-based.

For another test, the target named is T4, MST2 (Homo sapiens, UniProt Q13188).
T4 construct: purchased DiscoveRx
The experiment in a line: KinomeScan. It is filed as binding. The note with it: read-out: % Control.

The next test concerns the target T5, DMPK2 (Homo sapiens, UniProt Q6DT37).
T5 construct: purchased DiscoveRx (Fremont, CA), KinomeScan service
Briefly: KinomeScan. It is filed as binding. As to conditions: read-out: % Control.

For a further test, the target named is T6, PHKG2 (Homo sapiens, UniProt P15735).
T6 construct: purchased DiscoveRx (Fremont, CA)
Briefly: KinomeScan. The note with it: read-out: % Control. It is filed as binding.

The next test addresses T7, TAOK2 (Homo sapiens, UniProt Q9UL54).
T7 construct: purchased DiscoveRx (Fremont, CA)
The experiment in a line: KinomeScan. It is filed as binding. The note with it: read-out: % Control.

Another test has as its target T8, BRAF(V600E) (Homo sapiens, UniProt P15056, V600E).
T8 construct: purchased DiscoveRx (Fremont, CA)
Briefly: KinomeScan. It is filed as binding. As to conditions: read-out: % Control.

The target in the next test is T9, CASK (Homo sapiens, UniProt O14936).
T9 construct: purchased DiscoveRx (KinomeScan service)
T9 sequence (O14936 whole entry): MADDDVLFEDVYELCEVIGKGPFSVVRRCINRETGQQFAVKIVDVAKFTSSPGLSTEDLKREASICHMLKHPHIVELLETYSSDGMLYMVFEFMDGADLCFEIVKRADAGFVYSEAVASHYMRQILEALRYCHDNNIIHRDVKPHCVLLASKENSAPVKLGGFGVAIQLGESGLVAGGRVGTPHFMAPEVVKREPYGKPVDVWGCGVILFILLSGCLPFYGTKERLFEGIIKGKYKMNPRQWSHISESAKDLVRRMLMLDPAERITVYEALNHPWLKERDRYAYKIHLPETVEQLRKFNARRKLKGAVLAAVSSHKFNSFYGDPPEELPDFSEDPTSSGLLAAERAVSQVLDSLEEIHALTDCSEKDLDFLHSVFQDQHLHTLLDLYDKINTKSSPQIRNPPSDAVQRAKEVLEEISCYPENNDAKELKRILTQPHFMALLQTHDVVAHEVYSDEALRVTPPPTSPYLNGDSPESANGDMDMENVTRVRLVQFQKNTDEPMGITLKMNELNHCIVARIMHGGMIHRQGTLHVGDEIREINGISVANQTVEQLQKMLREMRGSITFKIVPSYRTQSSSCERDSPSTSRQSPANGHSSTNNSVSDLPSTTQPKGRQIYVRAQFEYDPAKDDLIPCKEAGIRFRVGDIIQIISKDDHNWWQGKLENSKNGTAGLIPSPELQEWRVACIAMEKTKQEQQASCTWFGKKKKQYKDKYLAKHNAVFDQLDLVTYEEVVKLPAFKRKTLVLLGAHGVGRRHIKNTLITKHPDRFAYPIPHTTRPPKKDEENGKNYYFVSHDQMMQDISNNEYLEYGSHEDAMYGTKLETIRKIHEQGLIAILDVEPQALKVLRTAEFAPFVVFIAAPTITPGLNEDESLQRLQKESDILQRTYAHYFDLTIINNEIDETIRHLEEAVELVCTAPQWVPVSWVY
The experiment in a line: KinomeScan. It is filed as binding. As to conditions: read-out: % Control.

The target in a further test is T10, ERK8 (Homo sapiens, UniProt Q8TD08).
T10 construct: purchased DiscoveRx (Fremont, CA)
The experiment in a line: KinomeScan. It is filed as binding. As to conditions: read-out: % Control.

A further test concerns the target T11, PFTK1 (Homo sapiens, UniProt O94921).
T11 construct: purchased DiscoveRx (Fremont, CA)
Briefly: KinomeScan. It is filed as binding. The note with it: read-out: % Control.

Another test deals with Lpa1 (Homo sapiens, UniProt Q92633). The experiment in a line: Lpa1 activity of OGM analogs (Table 5). Type of test: cell-based. The method, then:
GPCR profiling assays were performed by Millipore (St. Louis, MO) using in cells expressing Gα15, a promiscuous G protein that enhances GPCR coupling to downstream Ca2+ signaling pathways. KinomeScan was conducted by DiscoveRx (Fremont, CA). Since GPCRs represent >30% of targets for FDA-approved small molecules and are known to modulate cell migration, activity against 158 GPCRs was assessed based on their chemical structures. GPCRs (158) were tested for agonist and antagonist activity at 10 μM. […] Chemical segregation analysis of zebrafish phenotype was conducted to further identify the inhibitory activity responsible for the zebrafish phenotype. […] The identities of the R groups in Formula A are shown below in Table 5.

In a further test the target is T12, DYRK1A (Homo sapiens, UniProt Q13627).
T12 construct: purchased DiscoveRx (Fremont, CA), KinomeScan service
The experiment in a line: KinomeScan. Type of test: binding. As to conditions: read-out: % Control.

For a further test, the target named is T13, NLK (Homo sapiens, UniProt Q9UBE8).
T13 construct: purchased DiscoveRx
The experiment in a line: KinomeScan. Type of test: binding. As to conditions: read-out: % Control.

In the next test the test system is endothelial cell (EC). The experiment in a line: Acidification-induced endothelial cell dysfunction. Type of test: cell-based. The method, then:
FIG. 34A through FIG. 34C: GPR68 plays a central role in acidification-induced endothelial cell (EC) dysfunction in vitro, and OGM2 abrogates EC dysfunction. […] These effects were abolished by OGM2 (OGM) at 3 uM and augmented by GPR68 positive allosteric modulator Ogerin (Og) at 2 uM. *P<0.05; Mann-Whitney test, n=5. FIG. 34C: Medium acidification reduced transendothelial resistance (TER), indicative of disruption of EC barrier function.

A further test has as its system NCI-H82. Briefly: Cell Titer-Glo viability, Lung cancer, small cell. Type of test: cell-based. How it is done: (§1) OGM2 kills wide variety of cancer cell types. Cell sensitivity can be classified in to Very Sensitive (LC50<2 μM), Sensitive (LC50=2 to 10 μM), Mildly Sensitive (LC50>10 μM), and Refractory (no killing at 10 μM). The listed established cell were incubated with OGM2 at 2 μM or 10 μM for 72 hours under standard cell culture conditions, and relative cell number was assessed using Cell Titer-Glo Luminescent Cell Viability Assay (Promega™) following the manufacturer's instructions. Luminescence was determined using a Cytation 5 reader and Gen5 software package (BioTek™).
(§2) Cancer cells, which are very sensitive to killing by OGM2 (LCs <2 μM), with reported mRNA expression of GPR68 and the related proton sensing receptor GPR4. LC50's (concentrations causing 50% lethality) were determined using CellTiter-Glo (Promega™, G7570). Cells were plated in 12-well plates (CELLTREAT Scientific Products, 229112) in 1 ml of DMEM with high glucose, GlutaMAX, HEPES, or RPMI 1640 with Penicillin-Streptomycin (ThermoFisher™, 10564029, 11875119 and 15140122) and 10% FBS. Cells were incubated overnight at 37° C. in 5% CO2. Then 1 mL of fresh media was added with DMSO, OGM, or positive control (Erastin; APExBIO Technology, LLC, B1524) and cells incubated for 3 days. On the third day, all media was removed, cells were rinsed with 1×PBS, PBS was removed, and 200 μL of 1× Passive Lysis Buffer (Promega™, E1941) was added to each well. […]. Subsequently, 20 μL of lysate was added to 100 μL CellTiter-Glo™ reagent on a LUMITRAC 200 plate (Greiner™ bio-one, 82050-726). Plates were briefly spun down and read on a GloMax-Multi Detection System (Promega™).
The cells listed in the tables above were incubated with OGM2 at 2 μM or 10 μM for 72 hours under standard cell culture conditions, and relative cell number was assessed using Cell Titer-Glo Luminescent Cell Viability Assay (Promega™) following the manufacturer's instructions. Luminescence was determined using a Cytation 5 reader and Gen5 software package (BioTek™). RNA expression of GPR68 and GPR4 in the corresponding cancer cell lines are listed, according to the publicly available The Human Protein Atlas version 22.0 and Ensembl version 103.38 (see proteinatlas.org). The consensus normalized expression value (“nTPM”=normalize transcript per million) was calculated as the maximum nTPM value for each gene in the two data sources.

The next test deals with REC-1. Briefly: Cell Titer-Glo viability, B-cell lymphoma. The note with it: 72 hours. It is filed as cell-based. How it is done:
as §1
as §2, with “Subsequently, 20 μL of lysate was added to 100 μL CellTiter-Glo™ reagent on a LUMITRAC 200 plate (Greiner™ bio-one, 82050-726).” left out
The cells listed in the tables above were incubated with OGM2 at 2 μM or 10 μM for 72 hours under standard cell culture conditions, and relative cell number was assessed using Cell Titer-Glo Luminescent Cell Viability Assay (Promega™) following the manufacturer's instructions. Luminescence was determined using a Cytation 5 reader and Gen5 software package (BioTek™). […] The consensus normalized expression value (“nTPM”=normalize transcript per million) was calculated as the maximum nTPM value for each gene in the two data sources.
Background: ATP-based viability assays read luminescence as a measure of living cells.

Like-named read-outs stand apart in the source and are kept apart here. Where only a bound is given, the exact number is not on record here.

T1 sequence (Q01718 whole entry): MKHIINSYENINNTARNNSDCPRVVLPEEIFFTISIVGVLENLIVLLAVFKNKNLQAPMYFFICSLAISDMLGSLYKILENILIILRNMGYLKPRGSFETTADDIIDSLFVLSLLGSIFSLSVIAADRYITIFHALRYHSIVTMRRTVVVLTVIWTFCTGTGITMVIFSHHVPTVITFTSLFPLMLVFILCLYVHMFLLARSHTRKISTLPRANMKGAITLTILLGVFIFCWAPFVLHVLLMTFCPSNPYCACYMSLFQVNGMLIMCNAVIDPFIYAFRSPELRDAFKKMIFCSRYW
T1 sequence (Q8TCY5 whole entry partner): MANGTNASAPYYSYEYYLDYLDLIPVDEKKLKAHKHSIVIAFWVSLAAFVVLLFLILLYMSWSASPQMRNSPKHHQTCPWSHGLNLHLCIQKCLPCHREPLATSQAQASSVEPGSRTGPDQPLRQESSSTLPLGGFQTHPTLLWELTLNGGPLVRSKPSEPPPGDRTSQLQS
T2 sequence (P51686 whole entry, species assumed): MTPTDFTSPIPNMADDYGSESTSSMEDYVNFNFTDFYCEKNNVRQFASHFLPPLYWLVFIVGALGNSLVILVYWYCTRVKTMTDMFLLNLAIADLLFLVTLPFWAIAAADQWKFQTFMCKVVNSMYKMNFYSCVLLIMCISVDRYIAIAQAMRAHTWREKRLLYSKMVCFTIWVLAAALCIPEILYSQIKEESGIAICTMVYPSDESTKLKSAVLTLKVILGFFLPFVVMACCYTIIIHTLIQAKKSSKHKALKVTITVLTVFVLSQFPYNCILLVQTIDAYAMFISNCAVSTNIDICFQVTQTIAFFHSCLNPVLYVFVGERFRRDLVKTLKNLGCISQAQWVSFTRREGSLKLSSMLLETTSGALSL
T3 sequence (Q9H244 whole entry, species assumed): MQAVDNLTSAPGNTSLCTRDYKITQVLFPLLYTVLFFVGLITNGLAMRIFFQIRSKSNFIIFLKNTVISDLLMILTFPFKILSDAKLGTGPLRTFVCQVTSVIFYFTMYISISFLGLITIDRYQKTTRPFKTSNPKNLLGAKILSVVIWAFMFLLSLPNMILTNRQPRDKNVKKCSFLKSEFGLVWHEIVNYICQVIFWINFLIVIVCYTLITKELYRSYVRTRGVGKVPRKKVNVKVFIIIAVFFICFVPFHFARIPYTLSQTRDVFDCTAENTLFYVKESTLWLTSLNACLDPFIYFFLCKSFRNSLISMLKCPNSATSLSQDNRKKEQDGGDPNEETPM
T5 sequence (Q6DT37 whole entry): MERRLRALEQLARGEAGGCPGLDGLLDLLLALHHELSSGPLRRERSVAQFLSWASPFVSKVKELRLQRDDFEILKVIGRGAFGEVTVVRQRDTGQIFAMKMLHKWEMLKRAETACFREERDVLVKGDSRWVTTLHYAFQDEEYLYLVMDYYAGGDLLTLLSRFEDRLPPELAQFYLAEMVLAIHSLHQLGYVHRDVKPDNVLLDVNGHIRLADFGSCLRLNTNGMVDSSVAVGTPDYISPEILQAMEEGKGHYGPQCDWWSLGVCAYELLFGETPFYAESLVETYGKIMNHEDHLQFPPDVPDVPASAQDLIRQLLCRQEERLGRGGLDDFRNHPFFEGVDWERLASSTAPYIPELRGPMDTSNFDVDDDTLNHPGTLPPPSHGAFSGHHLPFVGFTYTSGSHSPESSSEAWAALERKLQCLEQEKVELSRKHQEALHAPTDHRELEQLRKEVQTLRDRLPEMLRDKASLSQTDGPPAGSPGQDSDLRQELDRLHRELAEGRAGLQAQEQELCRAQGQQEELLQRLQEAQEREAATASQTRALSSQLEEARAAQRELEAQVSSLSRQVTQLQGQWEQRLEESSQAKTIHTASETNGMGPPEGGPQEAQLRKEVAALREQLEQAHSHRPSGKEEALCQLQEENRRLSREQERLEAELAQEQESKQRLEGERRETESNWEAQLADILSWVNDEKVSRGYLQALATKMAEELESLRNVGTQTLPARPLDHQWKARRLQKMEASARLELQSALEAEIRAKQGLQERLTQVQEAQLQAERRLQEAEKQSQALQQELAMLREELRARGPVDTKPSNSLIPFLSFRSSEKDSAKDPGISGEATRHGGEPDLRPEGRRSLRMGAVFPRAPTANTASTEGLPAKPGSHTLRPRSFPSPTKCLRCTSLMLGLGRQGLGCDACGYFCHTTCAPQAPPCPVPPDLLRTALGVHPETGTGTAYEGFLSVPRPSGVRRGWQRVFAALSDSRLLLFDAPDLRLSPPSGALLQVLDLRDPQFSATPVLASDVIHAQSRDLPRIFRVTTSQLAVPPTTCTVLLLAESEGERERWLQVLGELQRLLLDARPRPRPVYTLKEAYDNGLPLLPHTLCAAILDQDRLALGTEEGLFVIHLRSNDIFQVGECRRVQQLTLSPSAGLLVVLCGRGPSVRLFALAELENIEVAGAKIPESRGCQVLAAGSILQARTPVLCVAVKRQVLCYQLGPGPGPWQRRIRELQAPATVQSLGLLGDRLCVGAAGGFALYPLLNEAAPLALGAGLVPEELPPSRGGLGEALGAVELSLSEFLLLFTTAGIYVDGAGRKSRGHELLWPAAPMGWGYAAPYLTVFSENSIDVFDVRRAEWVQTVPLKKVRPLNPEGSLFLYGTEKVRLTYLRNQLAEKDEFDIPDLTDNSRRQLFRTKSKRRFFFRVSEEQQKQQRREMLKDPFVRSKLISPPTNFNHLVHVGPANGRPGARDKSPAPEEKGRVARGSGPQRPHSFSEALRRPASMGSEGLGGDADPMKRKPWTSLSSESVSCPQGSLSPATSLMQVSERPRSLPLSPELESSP
T7 sequence (Q9UL54 whole entry): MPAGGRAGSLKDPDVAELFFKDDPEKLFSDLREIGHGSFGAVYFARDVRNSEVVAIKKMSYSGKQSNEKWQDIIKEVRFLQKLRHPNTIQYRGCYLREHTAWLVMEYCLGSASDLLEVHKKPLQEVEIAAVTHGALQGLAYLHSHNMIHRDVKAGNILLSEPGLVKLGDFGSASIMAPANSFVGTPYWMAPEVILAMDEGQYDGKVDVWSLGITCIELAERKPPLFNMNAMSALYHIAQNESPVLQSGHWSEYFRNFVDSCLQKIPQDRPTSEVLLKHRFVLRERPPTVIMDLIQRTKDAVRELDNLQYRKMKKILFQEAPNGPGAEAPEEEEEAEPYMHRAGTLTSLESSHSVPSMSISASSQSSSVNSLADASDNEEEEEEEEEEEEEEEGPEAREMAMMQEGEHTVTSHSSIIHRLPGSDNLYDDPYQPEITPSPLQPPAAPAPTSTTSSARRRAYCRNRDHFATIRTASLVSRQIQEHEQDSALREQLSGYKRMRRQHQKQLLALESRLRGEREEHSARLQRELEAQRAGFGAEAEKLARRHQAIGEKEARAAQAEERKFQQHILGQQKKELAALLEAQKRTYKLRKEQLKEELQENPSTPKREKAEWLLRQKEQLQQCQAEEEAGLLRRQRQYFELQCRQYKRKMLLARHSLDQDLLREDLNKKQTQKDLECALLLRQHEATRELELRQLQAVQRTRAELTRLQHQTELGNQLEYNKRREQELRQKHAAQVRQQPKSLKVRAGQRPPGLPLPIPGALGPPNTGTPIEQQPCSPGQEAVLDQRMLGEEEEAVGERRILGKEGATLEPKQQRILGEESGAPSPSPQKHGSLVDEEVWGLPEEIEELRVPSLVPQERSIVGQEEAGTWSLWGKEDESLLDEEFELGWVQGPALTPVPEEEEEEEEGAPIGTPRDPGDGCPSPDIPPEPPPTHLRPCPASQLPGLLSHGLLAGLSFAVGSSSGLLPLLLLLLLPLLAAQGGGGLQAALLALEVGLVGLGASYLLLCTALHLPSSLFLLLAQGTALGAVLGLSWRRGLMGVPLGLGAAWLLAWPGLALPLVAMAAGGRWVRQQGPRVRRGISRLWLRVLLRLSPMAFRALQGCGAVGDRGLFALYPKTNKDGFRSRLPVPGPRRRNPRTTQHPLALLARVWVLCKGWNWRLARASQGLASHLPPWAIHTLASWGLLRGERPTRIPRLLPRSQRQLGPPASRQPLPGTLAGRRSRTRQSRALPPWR

A word on the IC50: it is the point on the concentration scale where inhibition reaches its midpoint. Read a low IC50 as greater potency. `CCc1ccc2c(c1)C1(NN=C(c3cccc4ccccc34)S1)C(=O)N2` (stereo not drawn) [OGM1, 5-ethyl-5′-naphthalen-1-ylspiro[1H-indole-3,2′-3H-1,3,4-thiadiazole]-2-one]: the Antagonism on MC2 (10 uM) is listed as 3.9; at CCR9 (10 uM), 0.6; on P2Y12 (10 uM), −0.3. In addition, the Agonism amounted to 0.1 at MC2 (12.5 uM), 0.4 at CCR9 (12.5 uM) and 1 on P2Y12 (12.5 uM). The remaining binding at 10 µM was determined as 69% on MST2; 93% at DMPK2; 71% on PHKG2; 81% on TAOK2; 94% at BRAF(V600E); 90% on CASK. The remaining binding at 10 µM was 100% at ERK8, 92% at PFTK1, 39% at DYRK1A and 100% at NLK. For the same compound, on Lpa1, the IC50 was found to be 8.7 µM.

As to `CCc1ccc2c(c1)C1(NN=C(c3ccccc3)S1)C(=O)N2` (stereo not drawn) [OGM2], in the test with endothelial cell (EC) (GPR4i 5 uM), the “TER decline caused by low pH (6.5)” value is recorded as “abolished TER decline”. In addition, in the test on endothelial cell (EC) (OGM2 3 uM, Ogerin 2 uM), the “acidic media (pH 6.5)-induced TNFα, VCAM1 and ICAM1 expression” value is “abolished”. The Class entry in the test with NCI-H82 is listed as “Mildly”; in the test with NCI-H82 (Table 13), “Low”. The “% Survival 2 μM OGM” value in the test with NCI-H82 (72 hours) is recorded as 102.6%; in the test on REC-1, 0.7%. Further, the “% Survival 10 μM OGM” value is 59.9% in the test on NCI-H82 (72 hours) and 0.0% with REC-1. Besides, the CC50 in the test on NCI-H82 (Homo sapiens, NCI-H82, 72 hours, read-out: LC50 (the source's name)) was above 10 µM; in the test on REC-1 (Homo sapiens, Rec1, read-out: LC50 (the source's name)), below 2 µM.
